# Data: PubChem BioAssay (NCI)
#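 Step 1: Grow cells in 96-well plates. Step 2: Expose to compound for 48 hours at 5 concentrations. Step 3: Interpolate endpoints linearly; if unreached, use highest concentration. TGI: total growth inhibition.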
# Key:
# Assay in all cases: NCI anticancer screen, dose series, 48 h
# [1] = test system: U251 CNS
# [2] = test system: SF-268 CNS
# [3] = test system: SK-MEL-28 melanoma
# [4] = test system: HCC-2998 colon
# [5] = test system: BT-549 breast
# [6] = test system: NCI-H226 lung
# [7] = test system: HOP-92 NSCLC
# [8] = test system: HL-60(TB) leukemia
# [9] = test system: HS 578T breast
# [10] = test system: SW-620 colon
# [11] = test system: OVCAR-5 ovarian
# [12] = test system: PC-3 prostate
# [13] = test system: UACC-257 melanoma
# [14] = test system: SR leukemia
# [15] = test system: SF-295 CNS
# [16] = test system: MDA-MB-435
# [17] = test system: EKVX NSCLC
# [18] = test system: K-562 leukemia
# [19] = test system: IGROV1 ovarian
# [20] = test system: RPMI-8226 leukemia
# [21] = test system: MDA-N
# [22] = test system: NCI/ADR-RES ovarian
# [23] = test system: HCT-15 colon
# [24] = test system: SK-MEL-2 melanoma
# [25] = test system: NCI-H522 lung
# [26] = test system: ACHN renal
# [27] = test system: SN12C renal
# [28] = test system: M14 melanoma
# [29] = test system: COLO 205 colon
# [30] = test system: CAKI-1 renal
# [31] = test system: T-47D breast
# [32] = test system: NCI-H460 lung
# [33] = test system: 786-0 renal
# [34] = test system: OVCAR-3 ovarian
# [35] = test system: A498 renal
# [36] = test system: HOP-62 NSCLC
# [37] = test system: OVCAR-4 ovarian
# [38] = test system: SNB-75 CNS
# [39] = test system: MOLT-4 leukemia
# [40] = test system: UO-31 renal
# [41] = test system: HT29 colon
# [42] = test system: OVCAR-8 ovarian
# [43] = test system: MDA-MB-231 breast
# [44] = test system: SNB-19 CNS
# [45] = test system: TK-10 renal
# [46] = test system: SK-MEL-5 melanoma
# [47] = test system: A549 NSCLC
# [48] = test system: KM12 colon
# [49] = test system: SF-539 CNS
# [50] = test system: LOX IMVI melanoma
# [51] = test system: UACC-62 melanoma
# [52] = test system: MCF7 breast
# [53] = test system: HCT-116 colon
# [54] = test system: SK-OV-3 ovarian
# [55] = test system: DU-145 prostate
# [56] = test system: RXF 393 renal
# [57] = test system: NCI-H23 lung
# [58] = test system: MALME-3M melanoma
# [59] = test system: CCRF-CEM leukemia
smiles,measurement,setting,value
CC1(C)CC23CC(C)(C)c4cccc(c42)OCc2ccc4ccc5ccc(nc5c4n2)COc2cccc1c23,TGI,[1],> 50 µM
same,TGI,[2],> 50 µM
same,TGI,[3],> 50 µM
same,TGI,[4],> 50 µM
same,TGI,[5],> 50 µM
same,TGI,[6],> 50 µM
same,TGI,[7],> 50 µM
same,TGI,[8],> 50 µM
same,TGI,[9],> 50 µM
same,TGI,[10],> 50 µM
same,TGI,[11],> 50 µM
same,TGI,[12],> 50 µM
same,TGI,[13],> 50 µM
same,TGI,[14],> 50 µM
same,TGI,[15],> 50 µM
same,TGI,[16],> 50 µM
same,TGI,[17],> 50 µM
same,TGI,[18],> 50 µM
same,TGI,[19],> 50 µM
same,TGI,[20],> 50 µM
same,TGI,[21],> 50 µM
same,TGI,[22],> 50 µM
same,TGI,[23],> 50 µM
same,TGI,[24],> 50 µM
same,TGI,[25],> 50 µM
same,TGI,[26],> 50 µM
same,TGI,[27],> 50 µM
same,TGI,[28],> 50 µM
same,TGI,[29],> 50 µM
same,TGI,[30],> 50 µM
same,TGI,[31],> 50 µM
same,TGI,[32],> 50 µM
same,TGI,[33],> 50 µM
same,TGI,[34],> 50 µM
same,TGI,[35],> 50 µM
same,TGI,[36],> 50 µM
same,TGI,[37],> 50 µM
same,TGI,[38],> 50 µM
same,TGI,[39],> 50 µM
same,TGI,[40],> 50 µM
same,TGI,[41],> 50 µM
same,TGI,[42],> 50 µM
same,TGI,[43],> 50 µM
same,TGI,[44],> 5 µM
same,TGI,[45],> 50 µM
same,TGI,[46],> 50 µM
same,TGI,[47],> 50 µM
same,TGI,[48],> 50 µM
same,TGI,[49],> 50 µM
same,TGI,[50],> 50 µM
same,TGI,[51],> 50 µM
same,TGI,[52],> 50 µM
same,TGI,[53],> 50 µM
same,TGI,[54],> 50 µM
same,TGI,[55],> 50 µM
O=C1N2CCc3c([nH]c4ccccc34)C23CC2CCCCC12S3 (stereo unspecified),TGI,[1],> 100 µM
same,TGI,[2],> 100 µM
same,TGI,[56],> 100 µM
same,TGI,[3],> 100 µM
same,TGI,[5],> 100 µM
same,TGI,[6],> 100 µM
same,TGI,[7],> 100 µM
same,TGI,[8],> 100 µM
same,TGI,[9],> 100 µM
same,TGI,[10],> 100 µM
same,TGI,[11],> 100 µM
same,TGI,[12],> 100 µM
same,TGI,[13],73.1 µM
same,TGI,[14],> 100 µM
same,TGI,[15],> 100 µM
same,TGI,[16],> 100 µM
same,TGI,[57],> 100 µM
same,TGI,[17],> 100 µM
same,TGI,[18],> 100 µM
same,TGI,[19],> 100 µM
same,TGI,[20],> 100 µM
same,TGI,[21],> 100 µM
same,TGI,[22],> 100 µM
same,TGI,[23],> 100 µM
same,TGI,[25],> 100 µM
same,TGI,[26],> 100 µM
same,TGI,[27],> 100 µM
same,TGI,[28],> 100 µM
same,TGI,[29],> 100 µM
same,TGI,[30],> 100 µM
same,TGI,[31],> 100 µM
same,TGI,[33],> 100 µM
same,TGI,[34],> 100 µM
same,TGI,[35],> 100 µM
same,TGI,[36],> 100 µM
same,TGI,[37],> 100 µM
same,TGI,[39],> 100 µM
same,TGI,[40],> 100 µM
same,TGI,[41],> 100 µM
same,TGI,[42],> 100 µM
same,TGI,[43],> 100 µM
same,TGI,[44],> 100 µM
same,TGI,[45],> 100 µM
same,TGI,[46],> 100 µM
same,TGI,[47],> 100 µM
same,TGI,[48],> 100 µM
same,TGI,[49],> 100 µM
same,TGI,[50],> 100 µM
same,TGI,[51],> 100 µM
same,TGI,[52],> 100 µM
same,TGI,[53],> 100 µM
same,TGI,[54],> 100 µM
same,TGI,[58],> 100 µM
same,TGI,[55],> 100 µM
O=C(CCCNc1nc(-c2ccccc2)cs1)c1cccs1,TGI,[1],> 100 µM
same,TGI,[2],> 100 µM
same,TGI,[3],> 100 µM
same,TGI,[4],> 100 µM
same,TGI,[5],> 100 µM
same,TGI,[6],> 100 µM
same,TGI,[9],> 100 µM
same,TGI,[10],> 100 µM
same,TGI,[11],> 100 µM
same,TGI,[12],> 100 µM
same,TGI,[13],> 100 µM
same,TGI,[14],> 100 µM
same,TGI,[15],> 100 µM
same,TGI,[16],> 100 µM
same,TGI,[57],> 100 µM
same,TGI,[17],> 100 µM
same,TGI,[18],> 100 µM
same,TGI,[19],> 100 µM
same,TGI,[20],> 100 µM
same,TGI,[21],> 100 µM
same,TGI,[22],> 100 µM
same,TGI,[23],> 100 µM
same,TGI,[24],> 100 µM
same,TGI,[25],> 100 µM
same,TGI,[26],> 100 µM
same,TGI,[27],> 100 µM
same,TGI,[28],> 100 µM
same,TGI,[29],> 100 µM
same,TGI,[30],> 100 µM
same,TGI,[31],> 100 µM
same,TGI,[32],> 100 µM
same,TGI,[33],> 100 µM
same,TGI,[34],> 100 µM
same,TGI,[36],> 100 µM
same,TGI,[37],> 100 µM
same,TGI,[38],> 100 µM
same,TGI,[39],> 100 µM
same,TGI,[40],> 100 µM
same,TGI,[41],> 100 µM
same,TGI,[42],> 100 µM
same,TGI,[43],> 100 µM
same,TGI,[44],> 100 µM
same,TGI,[45],> 100 µM
same,TGI,[46],> 100 µM
same,TGI,[47],> 100 µM
same,TGI,[48],> 100 µM
same,TGI,[49],> 100 µM
same,TGI,[50],> 100 µM
same,TGI,[51],> 100 µM
same,TGI,[52],> 100 µM
same,TGI,[53],> 100 µM
same,TGI,[54],> 100 µM
same,TGI,[58],> 100 µM
O=C1NC(N2CCCCC2)=N/C1=C\c1cccs1,TGI,[1],> 100 µM
same,TGI,[2],> 100 µM
same,TGI,[56],> 100 µM
same,TGI,[3],> 100 µM
same,TGI,[4],> 100 µM
same,TGI,[5],> 100 µM
same,TGI,[6],> 100 µM
same,TGI,[7],> 100 µM
same,TGI,[8],> 100 µM
same,TGI,[59],> 100 µM
same,TGI,[9],> 100 µM
same,TGI,[10],> 100 µM
same,TGI,[11],> 100 µM
same,TGI,[12],> 100 µM
same,TGI,[13],> 100 µM
same,TGI,[14],> 100 µM
same,TGI,[15],> 100 µM
same,TGI,[16],> 100 µM
same,TGI,[57],> 100 µM
same,TGI,[17],> 100 µM
same,TGI,[19],> 100 µM
same,TGI,[20],> 100 µM
same,TGI,[21],> 100 µM
same,TGI,[22],> 100 µM
same,TGI,[23],> 100 µM
same,TGI,[24],> 100 µM
same,TGI,[25],> 100 µM
same,TGI,[26],> 100 µM
same,TGI,[27],> 100 µM
same,TGI,[28],> 100 µM
same,TGI,[29],> 100 µM
same,TGI,[30],> 100 µM
same,TGI,[31],> 100 µM
same,TGI,[33],> 100 µM
same,TGI,[34],> 100 µM
same,TGI,[36],> 100 µM
same,TGI,[37],> 100 µM
same,TGI,[39],> 100 µM
same,TGI,[40],> 100 µM
same,TGI,[41],> 100 µM
same,TGI,[42],> 100 µM
same,TGI,[43],> 100 µM
same,TGI,[44],> 100 µM
same,TGI,[45],> 100 µM
same,TGI,[47],> 100 µM
same,TGI,[48],> 100 µM
same,TGI,[49],> 100 µM
same,TGI,[50],> 100 µM
same,TGI,[51],> 100 µM
same,TGI,[52],> 100 µM
same,TGI,[53],> 100 µM
same,TGI,[54],> 100 µM
same,TGI,[58],> 100 µM
same,TGI,[55],> 100 µM
